Assay results as given in paper PMC7272483, “Insights into the pH-dependent, extracellular sucrose utilization and concomitant levan formation by Gluconobacter albidus TMW 2.1191” (Antonie Van Leeuwenhoek, 2020).

Biological target: T1, levansucrase of G. albidus TMW 2.1191 (Gluconobacter albidus, UniProt A0A149SZ56)
T1 construct: gene lsc-2; cloned levansucrase gene expressed from pBAD in E. coli Top 10, crude lysate (Ni-NTA purification failed); native released enzyme ~48 kDa monomer, also tested in crude buffer supernatant
T1 sequence (A0A149SZ56 1-436): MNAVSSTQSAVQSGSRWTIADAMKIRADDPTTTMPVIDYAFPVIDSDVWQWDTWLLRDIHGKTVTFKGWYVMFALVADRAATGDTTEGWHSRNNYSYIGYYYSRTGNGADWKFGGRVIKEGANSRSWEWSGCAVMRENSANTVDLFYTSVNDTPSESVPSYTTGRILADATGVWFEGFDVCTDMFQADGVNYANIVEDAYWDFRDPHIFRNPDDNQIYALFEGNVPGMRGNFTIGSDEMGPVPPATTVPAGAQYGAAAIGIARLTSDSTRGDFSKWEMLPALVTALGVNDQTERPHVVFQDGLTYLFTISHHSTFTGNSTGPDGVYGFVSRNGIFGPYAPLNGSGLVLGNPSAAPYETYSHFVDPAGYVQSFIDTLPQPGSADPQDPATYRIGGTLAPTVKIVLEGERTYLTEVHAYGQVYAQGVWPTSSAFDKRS
Assay: glucose/fructose release, enzymatic D-fructose/D-glucose kit
Assay type: cell-based
Settings: E. coli lysate with recombinant enzyme; pH 3.0-7.0, 30 °C, 1 h; hydrolysis and transfructosylation

OC[C@H]1O[C@@](CO)(O[C@H]2O[C@H](CO)[C@@H](O)[C@H](O)[C@H]2O)[C@@H](O)[C@@H]1O [sucrose]
volumetric activity: the enzyme exhibits comparable activities and Michaelis–Menten kinetics within a broad pH range
